Results on 8 compounds are retold here after patent US4727062A, “3-Halovinylglycine antibacterial agents” (Merck & Co., Inc., priority 1986, dated 1988).

Converted amounts (≈) assume the structure as drawn.

One assay concerns Ps. aeruginosa. The assay is described as follows: Agar dilution assay, M.I.C. The assay is classed as cell-based. The procedure: (§1) Representative 3-halovinylglycines and amino acid conjugates were tested for antibacterial activity by an agar dilution assay [being an modification of the antagonist-free-medium assay described in: Antimicrobial Agents and Chemotherapy, May 1979, pp 677-683 and pp 684-695]. Compounds asayed include (L) and (D)-3-chlorovinylglycine (HCL salts), (L) norvalyl-(L), (D), and (DL)-3-chlorovinylglycine (CF3 COOH salts), and (L) norvalyl-(L), (D), and (DL)-3 fluorovinylglycine (CF3 COOH) salts.
(§2) The antibacterial activity of the representative structure I compounds versus eleven representative strains of pathogenic bacteria is shown in the following Table.
(§3) Agar Dilution Asay [minimum inhibitory concentration (M.I.C.)-mg/ml]

For another assay, the system named is Ser. marcescens. The assay is described as follows: Agar dilution assay, M.I.C. The assay is classed as cell-based. As to the method:
as §1, §2, §3
A general note: In agar dilution the substance is mixed into plates at graded concentrations.

The next assay has as its system S. aureus. Put plainly: Agar dilution assay, M.I.C. The assay is classed as cell-based. To be noted: for minimum inhibitory concentration (M.I.C.): agar dilution, S. aureus. The procedure: as §1, §2, §3
In another assay the test system is E. coli TEM 2^+. Put plainly: Agar dilution assay, M.I.C. It counts as cell-based. The procedure:
as §1, §2, §3

The subject of another assay is K. pneumoniae. The assay is described as follows: Agar dilution assay, M.I.C. It counts as cell-based. The settings on record: for minimum inhibitory concentration (M.I.C.): agar dilution, K. pneumoniae. As to the method:
as §1, §2, §3

The test system of the next assay is E. coli. The assay is described as follows: Agar dilution assay, M.I.C. It counts as cell-based. The procedure: as §1, §2, §3
Another assay deals with Prot. vulgaris. Put plainly: Agar dilution assay, M.I.C. It counts as cell-based. The procedure:
as §1, §2, §3

For a further assay, the system named is Sal. typhimurium. Put plainly: Agar dilution assay, M.I.C. The assay is classed as cell-based. The procedure: as §1, §2, §3
For the next assay, the system named is E. coli DC2. The assay is described as follows: Agar dilution assay, M.I.C. It counts as cell-based. As to the method: as §1, §2, §3
The test system of the next assay is Strep. faecalis. Put plainly: Agar dilution assay, M.I.C. The assay is classed as cell-based. As to the method: as §1, §2, §3
Another assay relates to cystathionine synthetase. To be noted: synthesis of cystathionine from serine; cited from earlier work.
The test system of a further assay is Ent. cloacae P99^-. The assay is described as follows: Agar dilution assay, M.I.C. It counts as cell-based. The procedure: as §1, §2, §3
The subject of assay [1] is eleven representative strains of pathogenic bacteria. The assay is described as follows: Agar dilution assay, panel of eleven strains. The assay is classed as cell-based. To be noted: for number of test species against which activity is shown: M.I.C. equal to or less than 256 indicates antibacterial activity. As to the method: as §1, §2

On to `C=C(Cl)C(NC(=O)[C@@H](N)CCC)C(=O)O` (mixture of isomers) [(L)-NVA-(DL)-Cl-vinylgly, L-norvalyl-D,L-3-chlorovinylglycine], for which the “minimum inhibitory concentration (M.I.C.)” value in the assay on Ps. aeruginosa was more than 256 mg/mL; in the assay with Ser. marcescens, more than 256 mg/mL; in the assay with S. aureus, not above 0.25 mg/mL; with E. coli TEM 2^+ it was more than 256 mg/mL; in the assay on K. pneumoniae, 32 mg/mL; in the assay on E. coli, 128 mg/mL. For the same compound, the “minimum inhibitory concentration (M.I.C.)” value in the assay with Prot. vulgaris is 256 mg/mL; with Sal. typhimurium, 256 mg/mL; in the assay with E. coli DC2, 4 mg/mL; with Strep. faecalis, 4 mg/mL.

Regarding `C=C(Cl)C(N)C(=O)O` (racemic) [racemic 3-chlorovinylglycine, 2-amino-3-chloro-3-butenoic acid], the “inactivation of cystathionine synthetase (in words)” value with cystathionine synthetase is reported as “not being an inactivator”.

Turning to `CCC[C@H](N)C(=O)N[C@H](C=CCl)C(=O)O` [(L)-NVA-(D)-Cl-vinylgly, L-norvalyl-D-3-chlorovinylglycine], the “minimum inhibitory concentration (M.I.C.)” value with Ps. aeruginosa is more than 256 mg/mL; in the assay with S. aureus, 16 mg/mL (≈ 68.2 mM); in the assay on E. coli TEM 2^+, 256 mg/mL (≈ 1090 mM); with K. pneumoniae it was 64 mg/mL (≈ 273 mM); in the assay on E. coli, more than 256 mg/mL; with Prot. vulgaris it was more than 256 mg/mL. For the same compound, the figures for the “minimum inhibitory concentration (M.I.C.)” value in the assay on E. coli DC2 and with Strep. faecalis were 32 mg/mL (≈ 136 mM) and 128 mg/mL (≈ 545 mM), respectively.

As for `C=C(F)[C@@H](NC(=O)[C@@H](N)CCC)C(=O)O.O=C(O)C(F)(F)F` [(L)-NVA-(D)-F-vinylgly, (L,D)-Norvalyl-3-fluorovinylglycine trifluoroacetate], the “minimum inhibitory concentration (M.I.C.)” value with Ps. aeruginosa, in the assay on Ser. marcescens, in the assay with S. aureus, with E. coli TEM 2^+, in the assay with K. pneumoniae and in the assay with E. coli was more than 256 mg/mL each time. Besides, the “minimum inhibitory concentration (M.I.C.)” value in the assay on Prot. vulgaris, in the assay on Sal. typhimurium, in the assay with E. coli DC2 and with Strep. faecalis was more than 256 mg/mL throughout.

`C=C(F)C(NC(=O)[C@@H](N)CCC)C(=O)O` (stereo partly drawn) [(L)-NVA-(DL)-F-vinylgly, (L,DL)-Norvalyl-3-fluorovinylglycine trifluoracetate]: the “minimum inhibitory concentration (M.I.C.)” value with Ps. aeruginosa was more than 256 mg/mL; in the assay on Ser. marcescens, 256 mg/mL (≈ 1170 mM); in the assay on S. aureus it was 1.0 mg/mL (≈ 4.58 mM); in the assay with E. coli TEM 2^+, 128 mg/mL (≈ 587 mM); in the assay on K. pneumoniae it was 128 mg/mL (≈ 587 mM); with E. coli it was 8 mg/mL (≈ 36.7 mM). The “minimum inhibitory concentration (M.I.C.)” value is 64 mg/mL (≈ 293 mM) in the assay on Ent. cloacae P99^-; more than 256 mg/mL with Prot. vulgaris; 256 mg/mL (≈ 1170 mM) in the assay with Sal. typhimurium; 4 mg/mL (≈ 18.3 mM) in the assay with E. coli DC2; more than 256 mg/mL in the assay with Strep. faecalis.

On to `C=C(Cl)[C@H](NC(=O)[C@@H](N)CCC)C(=O)O.O=C(O)C(F)(F)F` [(L)-NVA-(L)-Cl-vinylgly, (L,L)-Norvalyl 3-chlorovinylglycine trifluoroacetate], for which the “minimum inhibitory concentration (M.I.C.)” value with Ps. aeruginosa is more than 256 mg/mL; in the assay with Ser. marcescens it was more than 256 mg/mL; with S. aureus it was 0.5 mg/mL; in the assay on E. coli TEM 2^+ it was 8 mg/mL; with K. pneumoniae, 2 mg/mL; with E. coli, 32 mg/mL. For the same compound, the “minimum inhibitory concentration (M.I.C.)” value in the assay on Prot. vulgaris was 256 mg/mL; in the assay on Sal. typhimurium, 64 mg/mL; with E. coli DC2 it was 1 mg/mL; in the assay with Strep. faecalis, 4 mg/mL. Besides, in [1], the “number of test species against which activity is shown” value is given as 8 of 11.

For `C=C(F)[C@H](NC(=O)[C@@H](N)CCC)C(=O)O.O=C(O)C(F)(F)F` [(L)-NVA-(L)-F-vinylgly, (L,L)-Norvalyl-3-fluorovinylglycine trifluoroacetate], the “minimum inhibitory concentration (M.I.C.)” value with Ps. aeruginosa is more than 256 mg/mL; in the assay on Ser. marcescens, 64 mg/mL; with S. aureus, more than 256 mg/mL; with E. coli TEM 2^+, 16 mg/mL; with K. pneumoniae, 2 mg/mL; with E. coli, 4 mg/mL. Moreover, the “minimum inhibitory concentration (M.I.C.)” value with Ent. cloacae P99^- turned out to be 32 mg/mL; in the assay with Prot. vulgaris it was 32 mg/mL; in the assay with Sal. typhimurium, 128 mg/mL; in the assay with E. coli DC2 it was 2 mg/mL; with Strep. faecalis, 64 mg/mL. In addition, in assay [1], the “number of test species against which activity is shown” value was 9 of 11. The “antibacterial activity compared with the (L,D) diastereomer” value in assay [1] (antibacterial agar dilution assay) is given as “more active”.

As to `N[C@@H](C=CCl)C(=O)O` [(L)Cl vinylgly, L-3-chlorovinylglycine], the “minimum inhibitory concentration (M.I.C.)” value with Ps. aeruginosa is more than 256 mg/mL; in the assay on Ser. marcescens, more than 256 mg/mL; in the assay on S. aureus it was 128 mg/mL (≈ 944 mM); with E. coli TEM 2^+ it was more than 256 mg/mL; with K. pneumoniae, 256 mg/mL (≈ 1890 mM); in the assay with E. coli, more than 256 mg/mL. For the same compound, the “minimum inhibitory concentration (M.I.C.)” value in the assay with Prot. vulgaris and in the assay with Sal. typhimurium was more than 256 mg/mL in each case. Further, the “antibacterial activity (in words)” value with S. aureus (vs S. aureus) and in the assay with K. pneumoniae (vs K. pneumoniae) was “exhibits antibacterial activity” throughout.
